Measured values as given in publication PMC11905058, “Novel Leech Antimicrobial Peptides, Hirunipins: Real‐Time 3D Monitoring of Antimicrobial and Antibiofilm Mechanisms Using Optical Diffraction Tomography” (Advanced Science, 2025).
Residues, ends and D or L forms follow the SMILES beside them. No end group written: not given here.

Tests used:
Format in all cases: cell-based
[1] = system: Escherichia coli [KCTC 1682]; settings: KCTC 1682, 24 h
Experimental: (§1) The MICs of the peptides were measured by the Clinical and Laboratory Standards Institute (CLSI) broth microdilution method, as outlined in a previous study.^[ [26], [27] ^]
(§2) Minimal Inhibitory Concentrations (MICs): Bacteria were grown to mid-logarithmic phase and diluted in Mueller-Hinton broth (MHB) (Difco). The bacterial suspension (1×10^6 CFU/well) was added to a 96-well microtiter plate along with a two-fold serial dilution of samples. The plate was incubated at 37 °C for 24 hours and the bacterial growth inhibition was assessed by measuring the optical density using an ELISA plate reader. The minimum inhibitory concentration (MIC) was defined as the lowest concentration of samples that prevented visible bacterial growth.

[2] = system: Pseudomonas aeruginosa [KCTC 1637]; settings: KCTC 1637, 24 h
Experimental: as §1, §2

[3] = system: Staphylococcus aureus [KCTC1621]; settings: KCTC1621, 24 h
Experimental: as §1, §2

[4] = system: Staphylococcus epidermidis [KCTC 1917]; settings: KCTC 1917, 24 h
Experimental: as §1, §2

| Molecule | Minimum inhibitory concentration (MIC), Escherichia coli [KCTC 1682] [1] | Minimum inhibitory concentration (MIC), Pseudomonas aeruginosa [KCTC 1637] [2] | Minimum inhibitory concentration (MIC), Staphylococcus aureus [KCTC1621] [3] | Minimum inhibitory concentration (MIC), Staphylococcus epidermidis [KCTC 1917] [4] |
| --- | --- | --- | --- | --- |
| QKFNGKSYALAKKMKKRQVKFLNRILDQL [LP19] | >128 µg/mL | >128 µg/mL | >128 µg/mL | >128 µg/mL |
| LSKGGFKGKPERAMAHHLKNIRKKLSKSIMKS [LP6] | >128 µg/mL | >128 µg/mL | >128 µg/mL | >128 µg/mL |
| KKLLKKLEKISKKKKKDKKRGRGSPMTSYAILYDGA [LP10] | >128 µg/mL | >128 µg/mL | >128 µg/mL | >128 µg/mL |
| LLAHVSKGFKLSMQKSKKPSLPIKT-NH2 [LP5] | >128 µg/mL | >128 µg/mL | >128 µg/mL | >128 µg/mL |
| VLNVQSIMSWNKRVGGMILNLKT [LP11] | >128 µg/mL | >128 µg/mL | >128 µg/mL | >128 µg/mL |

Continued, values first:

| Minimum inhibitory concentration (MIC), Escherichia coli [KCTC 1682] [1] | Minimum inhibitory concentration (MIC), Pseudomonas aeruginosa [KCTC 1637] [2] | Minimum inhibitory concentration (MIC), Staphylococcus aureus [KCTC1621] [3] | Minimum inhibitory concentration (MIC), Staphylococcus epidermidis [KCTC 1917] [4] | Molecule |
| --- | --- | --- | --- | --- |
| >128 µg/mL | >128 µg/mL | >128 µg/mL | >128 µg/mL | CC(C)C[C@H](NC(=O)[C@H](Cc1ccc(O)cc1)NC(=O)[C@H](CCCCN)NC(=O)[C@H](CCCNC(=N)N)NC(=O)[C@H](CCCNC(=N)N)NC(=O)[C@H](CCC(N)=O)NC(=O)[C@@H](NC(=O)[C@H](CC(N)=O)NC(=O)[C@H](CCCNC(=N)N)NC(=O)CNC(=O)[C@@H](NC(=O)[C@H](CS)NC(=O)[C@@H]1CCCN1C(=O)[C@H](CCCCN)NC(=O)[C@H](CO)NC(=O)[C@H](CC(N)=O)NC(=O)[C@H](CC(C)C)NC(=O)[C@H](CCCCN)NC(=O)[C@H](CS)NC(=O)[C@H](CCC(N)=O)NC(=O)[C@H](CCCNC(=N)N)NC(=O)[C@H](CCC(=O)O)NC(=O)[C@H](CCCNC(=N)N)NC(=O)[C@@H](NC(=O)[C@H](Cc1c[nH]c2ccccc12)NC(=O)[C@H](Cc1ccc(O)cc1)NC(=O)CNC(=O)[C@@H](NC(=O)[C@@H](NC(=O)[C@H](CC(=O)O)NC(=O)[C@@H](N)CCCCN)C(C)C)[C@@H](C)O)C(C)C)C(C)C)[C@@H](C)O)C(=O)N[C@@H](CC(N)=O)C(=O)N[C@@H](CCCCN)C(N)=O [LP4] (H-KDVTGYWVRERQCKLNSKPCVGRNTQRRKYLNK-NH2; N-terminus and C-terminus assumed) |
| >128 µg/mL | >128 µg/mL | >128 µg/mL | >128 µg/mL | IIIIKMHKTRKEKTQSILSAPVGLLTTL [LP7] |
| >128 µg/mL | >128 µg/mL | >128 µg/mL | >128 µg/mL | CC(C)C[C@H](NC(=O)[C@H](CS)NC(=O)[C@@H](NC(=O)CNC(=O)[C@H](CC(=O)O)NC(=O)[C@H](CCC(=O)O)NC(=O)[C@H](CCCCN)NC(=O)[C@H](CCCCN)NC(=O)[C@H](CS)NC(=O)[C@@H](NC(=O)[C@H](CCCNC(=N)N)NC(=O)[C@H](CCCNC(=N)N)NC(=O)[C@@H](N)CCCNC(=N)N)[C@@H](C)O)[C@@H](C)O)C(=O)NCC(=O)N[C@@H](CCCNC(=N)N)C(=O)N[C@@H](CCCCN)C(=O)N[C@H](C(=O)N[C@@H](CCC(N)=O)C(=O)N[C@@H](Cc1ccc(O)cc1)C(=O)N[C@@H](CCCCN)C(=O)N[C@@H](CCCCN)C(=O)N[C@@H](Cc1ccc(O)cc1)C(=O)N[C@@H](CC(C)C)C(=O)N[C@@H](CCC(N)=O)C(=O)N[C@@H](CCCCN)C(=O)N[C@@H](CCCCN)C(N)=O)C(C)C [LP3] (H-RRRTCKKEDGTCLGRKVQYKKYLQKK-NH2; N-terminus and C-terminus assumed) |
